Test results published in PubChem BioAssay AID743483 (Broad Institute, 2014).
Calls of active or inactive are those of the source.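 Rule for the calls: active = cell killing, with a fitted active concentration at or below twice the top valid dose tested; inconclusive = flat partial cell loss, or a poor curve fit; inactive = effect in the rising direction, plus the rest.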

System: A549 viability, CellTiter-Glo ATP luminescence, 72 h
Test: cytotoxicity in A549 cells, dose response, cytotoxicity control, cell-based, CellTiter-Glo luminescence, dry powder (AID 743483)
Conditions: not given

Compound	IC50 [µM]
C[C@H]1CCCCO[C@@H](CN(C)S(=O)(=O)c2ccc(Cl)cc2)[C@@H](C)CN([C@@H](C)CO)C(=O)c2cc(NC(=O)NC3CCCCC3)ccc2O1	19.1
C[C@@H]1CN([C@H](C)CO)C(=O)c2cc(NC(=O)C3CCCCC3)ccc2O[C@@H](C)CCCCO[C@H]1CN(C)C(=O)Nc1cccc2ccccc12	21.8
C[C@@H]1CN([C@@H](C)CO)C(=O)c2cc(NC(=O)C3CCCCC3)ccc2O[C@@H](C)CCCCO[C@H]1CN(C)C(=O)Nc1cccc2ccccc12	6.41
COc1ccc(S(=O)(=O)N(C)C[C@@H]2OCCCC[C@H](C)Oc3ccc(NS(=O)(=O)c4ccc(Cl)cc4)cc3C(=O)N([C@@H](C)CO)C[C@@H]2C)cc1	22.1

System: not listed separately
Test: as above
Conditions: A549 viability, CellTiter-Glo ATP luminescence, 72 h; at 12 µM (top of the series)

Compound	activity change, negative = cytotoxicity
C[C@H](CO)N1C[C@H](C)[C@H](CN(C)C(=O)Nc2ccccc2)OCCCC[C@H](C)Oc2ccc(NC(=O)CCC(F)(F)F)cc2C1=O	12.7% (inactive)
C[C@H](CO)N1C[C@H](C)[C@H](CN(C)C(=O)Nc2ccc(F)cc2)OCCCC[C@H](C)Oc2ccc(NC(=O)C3CCCC3)cc2C1=O	12.9% (inactive)

Same assay, conditions: A549 viability, CellTiter-Glo ATP luminescence, 72 h; at 26 µM (top of the series)

Compound	activity change, negative = cytotoxicity
C[C@H](CO)N1C[C@H](C)[C@H](CN(C)C(=O)Nc2cccc3ccccc23)OCCCC[C@H](C)Oc2ccc(NC(=O)NC3CCCCC3)cc2C1=O	-18.8% (inactive)
C[C@H](CO)N1C[C@H](C)[C@H](CN(C)C(=O)Nc2ccc3c(c2)OCO3)OCCCC[C@H](C)Oc2ccc(NC(=O)NC3CCCCC3)cc2C1=O	-4.36% (inactive)
C[C@H](CO)N1C[C@H](C)[C@H](CN(C)C(=O)Nc2cccc3ccccc23)OCCCC[C@H](C)Oc2ccc(NC(=O)CCC(F)(F)F)cc2C1=O	-6.54% (inactive)
C[C@H](CO)N1C[C@H](C)[C@H](CN(C)C(=O)Nc2cccc3ccccc23)OCCCC[C@H](C)Oc2ccc(NC(=O)C3CCCCC3)cc2C1=O	-19% (inactive)
C[C@H](CO)N1C[C@H](C)[C@H](CN(C)C(=O)Nc2ccc3ccccc3c2)OCCCC[C@H](C)Oc2ccc(NC(=O)C3CCCCC3)cc2C1=O	2.71% (inactive)
CC(=O)Nc1ccc2c(c1)C(=O)N([C@H](C)CO)C[C@H](C)[C@H](CN(C)C(=O)Nc1ccc(F)cc1)OCCCC[C@H](C)O2	-6.53% (inactive)
C[C@@H]1CCCCO[C@@H](CN(C)C(=O)Nc2cccc3ccccc23)[C@@H](C)CN([C@H](C)CO)C(=O)c2cc(NC(=O)C3CCCCC3)ccc2O1	-24.4% (inactive)
C[C@@H]1CCCCO[C@H](CN(C)C(=O)Nc2cccc3ccccc23)[C@H](C)CN([C@@H](C)CO)C(=O)c2cc(NC(=O)C3CCCCC3)ccc2O1	-22.6% (inactive)
C[C@@H]1CCCCO[C@@H](CN(C)C(=O)Nc2cccc3ccccc23)[C@H](C)CN([C@H](C)CO)C(=O)c2cc(NC(=O)C3CCCCC3)ccc2O1	-11.3% (inactive)
C[C@@H]1CN([C@@H](C)CO)C(=O)c2cc(NC(=O)C3CCCCC3)ccc2O[C@@H](C)CCCCO[C@@H]1CN(C)C(=O)Nc1cccc2ccccc12	-22.9% (inactive)
C[C@H](CO)N1C[C@H](C)[C@H](CN(C)C(=O)Nc2ccc(F)cc2)OCCCC[C@H](C)Oc2ccc(NC(=O)Nc3ccccc3)cc2C1=O	-4.11% (inactive)
C[C@H](CO)N1C[C@H](C)[C@H](CN(C)C(=O)Nc2ccccc2)OCCCC[C@H](C)Oc2ccc(NC(=O)Nc3ccc4c(c3)OCO4)cc2C1=O	-21.2% (inactive)
C[C@H](CO)N1C[C@H](C)[C@H](CN(C)C(=O)Nc2cccc3ccccc23)OCCCC[C@H](C)Oc2ccc(NC(=O)c3ccccc3)cc2C1=O	-18.3% (inactive)
C[C@H](CO)N1C[C@H](C)[C@H](CN(C)C(=O)Nc2ccccc2)OCCCC[C@H](C)Oc2ccc(NC(=O)C3CCCCC3)cc2C1=O	-8.81% (inactive)
C[C@H](CO)N1C[C@H](C)[C@H](CN(C)C(=O)Nc2ccc(F)cc2)OCCCC[C@H](C)Oc2ccc(NC(=O)C3CCOCC3)cc2C1=O	4.42% (inactive)
CC(C)(C)c1ccc(-c2nc(-c3ccncc3)no2)cc1	-8.72% (inactive)
C[C@@H]1CCCCO[C@H](CN(C)C(=O)Nc2cccc3ccccc23)[C@@H](C)CN([C@@H](C)CO)C(=O)c2cc(NC(=O)C3CCCCC3)ccc2O1	-19.7% (inactive)
C[C@H](CO)N1C[C@H](C)[C@H](CN(C)C(=O)Nc2ccc(F)cc2)OCCCC[C@H](C)Oc2ccc(NC(=O)C3CCC3)cc2C1=O	-1.54% (inactive)
C[C@H](CO)N1C[C@H](C)[C@H](CN(C)C(=O)Nc2ccc(F)cc2)OCCCC[C@H](C)Oc2ccc(NC(=O)Nc3ccc(F)cc3)cc2C1=O	-13.3% (inactive)

Compound	activity change, negative = cytotoxicity
COc1ccc(NC(=O)N(C)C[C@@H]2OCCCC[C@H](C)Oc3ccc(NC(=O)C4CCCCC4)cc3C(=O)N([C@H](C)CO)C[C@@H]2C)cc1	-14.8% (inactive)
Cc1ccc(NC(=O)N(C)C[C@@H]2OCCCC[C@H](C)Oc3ccc(NC(=O)C4CCCCC4)cc3C(=O)N([C@H](C)CO)C[C@@H]2C)cc1	-2.73% (inactive)
C[C@H](CO)N1C[C@H](C)[C@H](CN(C)C(=O)Nc2ccc(F)cc2)OCCCC[C@H](C)Oc2ccc(NC(=O)C3CCCCC3)cc2C1=O	-8.92% (inactive)
C[C@H](CO)N1C[C@H](C)[C@H](CN(C)C(=O)Nc2ccc(F)cc2)OCCCC[C@H](C)Oc2ccc(NC(=O)C3CC3)cc2C1=O	2.37% (inactive)
C[C@H]1CCCCO[C@@H](CN(C)C(=O)Nc2ccc3c(c2)OCO3)[C@@H](C)CN([C@@H](C)CO)C(=O)c2cc(NC(=O)NC3CCCCC3)ccc2O1	-15% (inactive)
COc1ccc(NC(=O)N(C)C[C@@H]2OCCCC[C@H](C)Oc3ccc(NC(=O)NC4CCCCC4)cc3C(=O)N([C@H](C)CO)C[C@@H]2C)cc1	3.04% (inactive)
C[C@H](CO)N1C[C@H](C)[C@@H](CN(C)C(=O)Nc2cccc3ccccc23)OCCCC[C@H](C)Oc2ccc(NC(=O)C3CCCCC3)cc2C1=O	-15.8% (inactive)
C[C@H](CO)N1C[C@H](C)[C@H](CN(C)C(=O)Nc2ccccc2F)OCCCC[C@H](C)Oc2ccc(NC(=O)C3CCCCC3)cc2C1=O	-18.7% (inactive)
C[C@H](CO)N1C[C@H](C)[C@H](CN(C)C(=O)Nc2ccccc2)OCCCC[C@H](C)Oc2ccc(NC(=O)Nc3ccccc3)cc2C1=O	3.79% (inactive)
C[C@H](CO)N1C[C@H](C)[C@H](CN(C)C(=O)Nc2cccc(F)c2)OCCCC[C@H](C)Oc2ccc(NC(=O)C3CCCCC3)cc2C1=O	-12.5% (inactive)
C[C@H](CO)N1C[C@H](C)[C@H](CN(C)C(=O)Nc2ccc(F)cc2)OCCCC[C@H](C)Oc2ccc(NC(=O)NC3CCCCC3)cc2C1=O	-3.88% (inactive)
C[C@H]1CCCCO[C@@H](CN(C)C(=O)Nc2ccc(F)cc2)[C@@H](C)CN([C@@H](C)CO)C(=O)c2cc(NC(=O)C3CCCCC3)ccc2O1	-21.4% (inactive)
C[C@@H]1CCCCO[C@@H](CN(C)C(=O)Nc2cccc3ccccc23)[C@H](C)CN([C@@H](C)CO)C(=O)c2cc(NC(=O)C3CCCCC3)ccc2O1	-18.7% (inactive)
C[C@@H]1CCCCO[C@H](CN(C)C(=O)Nc2cccc3ccccc23)[C@H](C)CN([C@H](C)CO)C(=O)c2cc(NC(=O)C3CCCCC3)ccc2O1	-21.8% (inactive)
C[C@H](CO)N1C[C@H](C)[C@H](CN(C)C(=O)Nc2ccc(C(F)(F)F)cc2)OCCCC[C@H](C)Oc2ccc(NC(=O)NC3CCCCC3)cc2C1=O	-9.21% (inactive)
C[C@H]1CCCCO[C@@H](CN(C)C(=O)Nc2ccccc2)[C@@H](C)CN([C@@H](C)CO)C(=O)c2cc(NC(=O)NC3CCCCC3)ccc2O1	-3.65% (inactive)
C[C@H](CO)N1C[C@H](C)[C@H](CN(C)C(=O)Nc2ccc(F)cc2)OCCCC[C@H](C)Oc2ccc(NC(=O)C3CCCCCC3)cc2C1=O	-13.4% (inactive)
C[C@H](CO)N1C[C@H](C)[C@H](CN(C)C(=O)Nc2ccc3c(c2)OCO3)OCCCC[C@H](C)Oc2ccc(NC(=O)C3CCCCC3)cc2C1=O	-3.37% (inactive)
C[C@H](CO)N1C[C@H](C)[C@H](CN(C)C(=O)Nc2ccccc2)OCCCC[C@H](C)Oc2ccc(NC(=O)NC3CCCCC3)cc2C1=O	-4.06% (inactive)
